From PubChem BioAssay (NCI)
“And” between values parts separate entries of the source, which are not always exact repeats. Identical values can stand only once.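 Grown in 96-well plates, cells were treated for 48 hours with each compound at five concentrations. Insufficient inhibition: endpoint recorded as highest concentration tested. The concentration for 50% growth inhibition is given as GI50. TGI marks complete inhibition of growth.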

Legend:
Assay in all cases: DTP human tumour cell line panel, 48 h
[1] = system: T-47D breast
[2] = system: SF-268 CNS
[3] = system: UACC-257 melanoma
[4] = system: HL-60(TB) leukemia
[5] = system: RPMI-8226 leukemia
[6] = system: SK-MEL-28 melanoma
[7] = system: UACC-62 melanoma
[8] = system: SK-MEL-5 melanoma
[9] = system: HOP-62 NSCLC
[10] = system: NCI-H522 lung

Structure (SMILES) | GI50 [1] [µM] | TGI [1] [µM] | GI50 [2] [µM] | TGI [2] | GI50 [3] [µM] | TGI [3] [µM] | GI50 [4] [µM] | TGI [4] [µM] | GI50 [5] [µM] | TGI [5] [µM] | GI50 [6] [µM] | TGI [6] | GI50 [7] [µM] | TGI [7] | GI50 [8] [µM] | TGI [8] | GI50 [9] [µM] | TGI [9] | GI50 [10] [µM] | TGI [10]
c1ccc(CNCCN(CCNCc2ccccn2)Cc2ccc3ccccc3c2)nc1 | 2.59 | 9.06 | 2.89 | 12.3 µM | 2.16 | 4.69 | 2.4 | 5.77 | 2.67 | 6.65 | 1.75 | 3.36 µM | 2.17 | 4.7 µM | 1.76 | 3.16 µM | 2.17 | 6.69 µM | – | –
O=[N+]([O-])c1cc([N+](=O)[O-])c(Nn2c3ccccc3c3ccccc32)c([N+](=O)[O-])c1 | 0.278 | – | 0.359 | 39 µM and > 100 µM | 0.312 | 1.63 | 0.227 | – | – | 0.56 | 0.483 | 51.2 µM and 14.9 µM | 0.338 | 5.67 µM and 1.59 µM | 0.216 | 4.53 µM and 0.506 µM | 0.344 | 6.11 µM and 2.07 µM | 0.253 | 1.88 µM and 0.838 µM
COc1cc(C2c3cc4c(cc3C(OC(=O)C[n+]3ccccc3)C3COC(=O)C23)OCO4)cc(OC)c1OC (stereo not given) | 41.2 | > 100 | < 0.0208 | > 100 µM | > 100 | > 100 | < 0.0156 | < 0.0287 | < 0.0203 | > 100 | 53 | > 100 µM | 10.7 | > 100 µM | < 0.01 | < 0.01 µM | < 0.0259 | > 100 µM | < 0.01 | < 0.01 µM
C#CCN(c1ccc(C(=O)N[C@@H](CCC(=O)N[C@H](CCC(=O)O)C(=O)O)C(=O)O)cc1)C1CCc2cc3nc(CO)[nH]c(=O)c3cc21 (stereo not given in full) | > 67 | > 100 | 5.94 | > 100 µM | > 100 | > 100 | > 58.5 | > 100 | 88 | > 100 | > 100 | > 100 µM | 7.33 | > 64.1 µM | 10 | > 100 µM | > 31.8 | > 100 µM | > 100 | > 100 µM
CC[C@@H](C)/C=C(C)/C=C/C(=O)c1c(O)c(-c2ccc(O)cc2)cn(O)c1=O | 0.609 | 28.5 | 0.33 | 12.3 µM | 0.317 | 6.95 | 0.27 | 13.5 | 0.504 | 18 | 0.674 | 19.2 µM | 0.266 | 0.966 µM | 0.201 | 0.562 µM | 0.492 | 14.7 µM | 0.399 | 3.74 µM
CC(C)COc1nc2c(c(=O)n(C)c(=O)n2C)n1C | > 100 | > 100 | > 100 | > 100 µM | > 100 | > 100 | > 100 | > 100 | > 100 | > 100 | > 100 | > 100 µM | > 100 | > 100 µM | > 100 | > 100 µM | > 100 | > 100 µM | – | –
NS(=O)(=O)c1cc(C(=O)O)c(O)c2ccccc12 | – | > 100 | – | > 100 µM | – | > 100 | – | > 100 | – | > 100 | – | > 100 µM | – | > 100 µM | – | > 100 µM | – | > 100 µM | – | > 100 µM
CCc1nc2ccc(N=Nc3c(O)ccc4ccccc34)cc2[nH]1 | – | 59.7 | – | 53.3 µM | – | 29.4 | – | 29.8 | – | > 78 | – | 41.5 µM | – | 35.3 µM | – | 40 µM | – | 43.6 µM | – | 50.3 µM
CO[C@H]1CC(O[C@@H]2/C(C)=C/C[C@@H]3C[C@@H](C[C@]4(CC[C@H](C)[C@@H](C5CCCCC5)O4)O3)OC(=O)[C@@H]3C=C(C)/C(=N/O)[C@H]4OC/C(=C\C=C\[C@@H]2C)[C@]43O)O[C@@H](C)C1O (stereo not given in full) | 1.1 | 3.09 | 0.982 | 2.45 µM | 0.987 | 2.55 | 1.01 | 2.27 | 0.944 | 2.72 | 0.952 | 1.97 µM | 0.786 | 1.54 µM | 1 | 2.29 µM | 0.887 | 1.73 µM | 1.12 | 3.13 µM
Cc1cc(Nc2nc(N[C@@H](C)c3ncc(F)cn3)ncc2Cl)n[nH]1 | 22.8 | > 100 | 18.2 | > 82.4 µM | 33.2 | > 100 | 29.9 | > 100 | > 62 | > 100 | 38.1 | > 100 µM | 11.7 | 88 µM | 26 | > 100 µM | 20 | > 100 µM | 21.1 | > 100 µM
CCCCCCCCCC[C@H](O)[C@H](O)CC[C@@H](O)[C@H]1CC[C@@H]([C@H]2CC[C@H](CCCCCCC[C@@H](O)CC3=C[C@H](C)OC3=O)O2)O1 | 4.22 | 42.8 | 29.3 | > 100 µM | 9.51 | > 100 | – | 6.74 | 16.6 | 50.4 | 47 | > 100 µM | – | 5.95 µM | 0.0863 | 3.46 µM and 15.9 µM | 11.6 | 69.8 µM | – | 62.1 µM
Clc1ccccc1-c1nnc2c(Cc3ccccc3)nc3ccccc3n12 | 5.77 | > 100 | 7.15 | > 100 µM | 33.3 | > 100 | 32.5 | > 100 | 5.64 | > 100 | > 48.8 | > 100 µM | 6.9 | > 100 µM | 3.67 | > 100 µM | 9.92 | > 100 µM | 29.1 | > 100 µM
Cc1cc(-c2cc(O)ccc2Cl)cc2nnc(Nc3ccc(OCCN4CCCC4)cc3)nc12 | 1.66 | 3.95 | 1.99 | 3.91 µM | 1.96 | 3.91 | 0.305 | 0.627 | 0.207 | 0.442 | 0.292 | 0.843 µM | 1.7 | 3.33 µM | 1.75 | 3.37 µM | 1.88 | 3.79 µM | 0.71 | 2.58 µM
